# Source: article PMC12559310, “Tumor-targeted top1 inhibitor delivery with optimized parp inhibition in advanced solid tumors: a phase i trial of gapped scheduling” (Nature Communications, 2025)
# Values joined by “and” are separate entries in the source; they are usually repeats but may differ in a detail not shown here. Equal values may be shown once. Read-outs that look alike come from different tables or passages of the source.
# Assays:
# [1] = test system: patients with solid tumors; settings: cited from earlier work
# [2] = test system: SCLC cell lines; set-up: method as in protocol [5]; settings: pre-clinical models of SCLC; ref protocol [5]; cited from earlier work
# [3] = test system: xenografts and patient-derived xenografts (PDXs); set-up: method as in protocol [7]; settings: animal models; ref protocol [7]; cited from earlier work
# [4] = test system: platinum-sensitive SCLC relapse; set-up: method as in protocol [8]; settings: preliminary data, ref protocol [8], cited from earlier work
# [5] = test system: patients with advanced solid malignancies; settings: cited from earlier work
# [6] = test system: γ-H2AX; test: γ-H2AX intensity in plucked hair bulbs; format: in vivo, human; settings: for gamma-H2AX intensities / excess gamma-H2AX intensities (minus D1) / gamma-H2AX intensities minus D1, averages / gamma-H2AX intensities, averages: plucked hairs; for gamma-H2AX intensities / excess gamma-H2AX intensities (minus D1): D3 (48 h after CRLX101, before olaparib); for gamma-H2AX intensities minus D1, averages / gamma-H2AX intensities, averages: D3 (before olaparib)
# Description: (§1) PBMCs were isolated by Ficoll gradient, washed 3 times with phosphate-buffered saline (PBS), fixed in 2% paraformaldehyde (PFA) for 20 min, washed 3 times with PBS, and spotted on slides by cytospin (800 rpm/4 min). PBMCs on slides were permeabilized with pre-chilled ethanol 70% and slides were stored at 4 °C overnight. […] Finally, slides were incubated at 37 °C for 5 min with a solution containing RNAse A (0.5 mg/mL) and propidium iodide (PI) (5 µg/mL). Slides were then mounted with mounting medium containing PI (Vectashield, Vector Laboratories, Inc., Burlingame, CA, USA) and sealed with nail polish.
# Hair bulbs were collected in 1.5 microtubes filled with cold PBS and placed on ice directly after plucking. Plucked hairs were then fixed for 20 min at room temperature with 2% PFA in 1.5 microtubes. Following 3 washes with 1 ml PBS, plucked hairs were imaged, and anagen hair bulbs hairs were selected for γ-H2AX detection. Samples were permeabilized with pre-chilled ethanol 70%, washed, and stored at 4 °C until use. γ-H2AX detection was performed as described for PBMCs, but times for blocking and staining procedures were increased by 50%. Washes were performed by 3 washes with PBS. After incubation with the RNAse and PI solution at 37 °C for 30 min, hair shafts were detached from the bulbs by using a razor blade, and hair bulbs were mounted between a slide and a coverslip with mounting medium containing PI and sealed with nail polish.
# (§2) Samples were imaged by laser scanning confocal microscopy (Zeiss LSM 710 NLO). Optical sections through PBMCs and hair bulbs were combined in a maximum projection using the Zeiss Zen software. The foci were counted in PBMCs using the FociCounter software[55] by analyzing at least 200 cells, while γ-H2AX intensities were measured in the extremity of the hair bulbs with the Image J software. The above antibodies have been used in previous studies[56],[57].
# [7] = test system: γ-H2AX; test: γ-H2AX foci per cell in PBMCs; format: in vivo, human; settings: for γ-H2AX foci per cell in PBMCs Minus D1, averages (Fig 3G) / γ-H2AX foci per cell in PBMCs, averages (Fig 3G): D3 (before olaparib); for γ-H2AX, AVERAGES foci per cell / γ-H2AX, AVERAGES excess foci per cell: PBMCs; for γ-H2AX, AVERAGES foci per cell: D3 (48 h after CRLX101, before olaparib)
# Description: as §1, §2
# [8] = test system: patients with advanced solid tumors; test: Phase I dose escalation (3 + 3 design): DLTs and MTD/RP2D of CRLX101 plus olaparib; format: in vivo, human; settings: CRLX101 12 mg/m2 combined with Olaparib 250 tab bid; % of single-agent MTD; Current study
# Text: Olaparib tablets were given at escalating doses across cohorts (as shown in Fig. 1), administered twice daily on days 3–13 and 17–26 of the treatment cycle.
# A standard 3 + 3 design was used for dose escalation. […] DLTs were based on toxicities observed during the first cycle. […] Study treatment was discontinued if there was a > 3-week delay in reinstitution of treatment due to drug-related toxicity during a cycle. Dose reductions were allowed for toxicities. A maximum of two dose reductions were allowed. Dose re-escalation was not allowed.
# [9] = phase 1/2a patients receiving the MTD (n=44), no grade 4
compound,measurement,setting,value
CCc1c2c(nc3ccc(OC(=O)N4CCC(N5CCCCC5)CC4)cc13)-c1cc3c(c(=O)n1C2)COC(=O)[C@]3(O)CC [Irinotecan],Topo1i % of MTD,"[1]; Irinotecan 100 mg/m2 with Veliparib 40 bid d1-14, ref LoRusso, Clin Can Res, 2016",80%
same,Topo1i % of MTD,"[1]; Irinotecan 125 mg/m2 q2w with Olaparib 50 mg bid d1-5, ref Chen, Inv New Drugs, 2016",69%
same,Topo1i % of MTD,"[1]; Irinotecan 200 mg/m2 q3w with Olaparib 50 mg qd d1-21, ref Chen, Inv New Drugs, 2016",57%
CNCc1ccc(-c2[nH]c3cc(F)cc4c3c2CCNC4=O)cc1 [rucaparib],single agent activity,[2],striking single agent activity in a majority of SCLC cell lines tested
Cn1ncnc1[C@H]1c2n[nH]c(=O)c3cc(F)cc(c23)N[C@@H]1c1ccc(F)cc1 [talazoparib],anti-tumor activity as a single agent,[3],comparable or superior to cisplatin
same,"RECIST confirmed partial responses, patients",[4]; of 23 patients,2
same,"stable disease lasting more than 24 weeks, patients",[4]; of 23 patients,3
same,clinical benefit rate,[4],25%
same,single agent activity,[2],striking single agent activity in a majority of SCLC cell lines tested
CC[C@@]1(O)C(=O)OCc2c1cc1n(c2=O)Cc2cc3c(CN(C)C)c(O)ccc3nc2-1 [topotecan],Topo1i % of MTD,"[1]; Topotecan 0.6 mg/m2/d1-5 with Veliparib 10 bid d1-5, % of single-agent MTD, ref Kummar, Can Res, 2011",40%
same,Topo1i % of MTD,"[1]; Topotecan 1 mg/m2/d1-3 with Olaparib 100 mg bid d1-21, ref Samol, Inv New Drugs, 2012",40%
same,Topo1i % of MTD,"[1]; Topotecan 3 mg/m2 d2,9,16 with Veliparib 300 mg bid, ref Hendrickson, Clin Can Res, 2017",75%
C[C@]1(c2nc3c(C(N)=O)cccc3[nH]2)CCCN1 [veliparib],PARPi % of MTD,"[1]; Veliparib 50 mg BID with Liposomal Irinotecan 70 mg/m2 q2w, ref LaRose, Oncologist, 2023",13%
same,PARPi % of MTD,"[1]; Veliparib 300 mg bid with Topotecan 3 mg/m2 d2,9,16, ref Hendrickson, Clin Can Res, 2017",75%
same,PARPi % of MTD,"[1]; Veliparib 10 bid d1-5 with Topotecan 0.6 mg/m2/d1-5, % of single-agent MTD, ref Kummar, Can Res, 2011",3%
same,PARPi % of MTD,"[1]; Veliparib 10 bid d1-5 with Topotecan 0.6 mg/m2/d1-5, % of single-agent MTD, ref Kummar, Can Res, 2011, listed as Veliparib",≈ 3%
same,PARPi % of MTD,"[1]; Veliparib 40 bid d1-14 with Irinotecan 100 mg/m2, ref LoRusso, Clin Can Res, 2016",10%
Poly-CD-PEG-Camptothecin [CRLX101],Best overall response stable disease,[5]; 16 of a subset of NSCLC patients,73%
same,Best overall response stable disease,[5]; 28 patients treated at the MTD,64%
same,MTD,"[5]; CRLX101 monotherapy, bi-weekly, IV over 60 min, ref protocol [15]",15 mg/m2
same,Median progression-free survival (PFS),[5]; patients treated at the MTD,3.7 months
same,Grade 3 fatigue,[5]; [9],9%
same,Grade 3 neutropenia,[5]; [9],9%
same,Median progression-free survival (PFS),[5]; subset of NSCLC patients,4.4 months
same,γH2AX signal after CRLX101 alone,"[6]; Day 3 (48 h after CRLX101, pre-olaparib) vs pre-treatment, hair follicles and PBMC",increase in γH2AX signal
same,gamma-H2AX intensities,"[6]; DL1, average per patient",4.816
same,excess gamma-H2AX intensities (minus D1),"[6]; DL1, per patient",2.945
same,gamma-H2AX intensities,"[6]; DL2, average per patient",5.391 and 2.136 and 5.3349 and 5.978 and 6.804
same,excess gamma-H2AX intensities (minus D1),"[6]; DL2, per patient",2.273 and 0.6534 and 4.441 and 4.582 and 4.99
same,gamma-H2AX intensities,"[6]; DL3, average per patient",4.982 and 13.4338 and 12.7188
same,excess gamma-H2AX intensities (minus D1),"[6]; DL3, per patient",4.135 and 12.5502 and 12.1828
same,gamma-H2AX intensities,"[6]; DL4, average per patient",3.4222 and 3.662 and 5.428
same,excess gamma-H2AX intensities (minus D1),"[6]; DL4, per patient",2.309 and 3.241 and 5.235
same,gamma-H2AX intensities,"[6]; DL4R, average per patient",4.487 and 2.444 and 10.191 and 5.772
same,excess gamma-H2AX intensities (minus D1),"[6]; DL4R, per patient",3.986 and 2 and 9.666 and 4.568
same,"gamma-H2AX intensities minus D1, averages",[6]; DL1,2.945
same,"gamma-H2AX intensities, averages","[6]; DL1, average across patients",4.816
same,"gamma-H2AX intensities minus D1, averages",[6]; DL2,3.388
same,"gamma-H2AX intensities, averages","[6]; DL2, average across patients",5.129
same,"gamma-H2AX intensities minus D1, averages",[6]; DL3,9.623
same,"gamma-H2AX intensities, averages","[6]; DL3, average across patients",10.3781
same,"gamma-H2AX intensities minus D1, averages",[6]; DL4,0.8727
same,"gamma-H2AX intensities, averages","[6]; DL4, average across patients",4.171
same,"gamma-H2AX intensities minus D1, averages",[6]; DL4R,3.856
same,"gamma-H2AX intensities, averages","[6]; DL4R, average across patients",5.7233
same,"γ-H2AX foci per cell in PBMCs Minus D1, averages (Fig 3G)",[7]; DL1,0.009559
same,"γ-H2AX foci per cell in PBMCs, averages (Fig 3G)","[7]; DL1, average across patients",0.2861
same,"γ-H2AX foci per cell in PBMCs Minus D1, averages (Fig 3G)",[7]; DL2,-0.04097
same,"γ-H2AX foci per cell in PBMCs, averages (Fig 3G)","[7]; DL2, average across patients",0.07487
same,"γ-H2AX foci per cell in PBMCs Minus D1, averages (Fig 3G)",[7]; DL3,0.07028
same,"γ-H2AX foci per cell in PBMCs, averages (Fig 3G)","[7]; DL3, average across patients",0.3286
same,"γ-H2AX foci per cell in PBMCs Minus D1, averages (Fig 3G)",[7]; DL4,0.05059
same,"γ-H2AX foci per cell in PBMCs, averages (Fig 3G)","[7]; DL4, average across patients",0.1354
same,"γ-H2AX foci per cell in PBMCs Minus D1, averages (Fig 3G)",[7]; DL4R,0.1138
same,"γ-H2AX foci per cell in PBMCs, averages (Fig 3G)","[7]; DL4R, average across patients",0.1974
same,"γ-H2AX, AVERAGES foci per cell","[7]; DL1, per patient",0.4504 foci per cell and 0.1217 foci per cell
same,"γ-H2AX, AVERAGES foci per cell","[7]; DL2, per patient",0.06098 foci per cell and 0.03645 foci per cell and 0.07605 foci per cell and 0.04348 foci per cell and 0.1574 foci per cell
same,"γ-H2AX, AVERAGES foci per cell","[7]; DL3, per patient",0.574 foci per cell and 0.2632 foci per cell and 0.1488 foci per cell
same,"γ-H2AX, AVERAGES foci per cell","[7]; DL4, per patient",0.05652 foci per cell and 0.07904 foci per cell and 0.3651 foci per cell and 0.04096 foci per cell
same,"γ-H2AX, AVERAGES foci per cell","[7]; DL4R, per patient",0.05895 foci per cell and 0.2317 foci per cell and 0.2655 foci per cell and 0.1875 foci per cell and 0.2432 foci per cell
same,"γ-H2AX, AVERAGES excess foci per cell","[7]; D3 (before olaparib) minus D1, DL1, per patient",0.02853 foci per cell and -0.009408 foci per cell
same,"γ-H2AX, AVERAGES excess foci per cell","[7]; D3 (before olaparib) minus D1, DL2, per patient",0.01208 foci per cell and -0.0007052 foci per cell and -0.1169 foci per cell and -0.007436 foci per cell and -0.09186 foci per cell
same,"γ-H2AX, AVERAGES excess foci per cell","[7]; D3 (before olaparib) minus D1, DL3, per patient",0.159 foci per cell and 0.113 foci per cell and -0.06118 foci per cell
same,"γ-H2AX, AVERAGES excess foci per cell","[7]; D3 (before olaparib) minus D1, DL4, per patient",-0.04714 foci per cell and 0.07394 foci per cell and 0.1683 foci per cell and 0.007302 foci per cell
same,"γ-H2AX, AVERAGES excess foci per cell","[7]; D3 (before olaparib) minus D1, DL4R, per patient",0.006793 foci per cell and 0.06366 foci per cell and 0.2087 foci per cell and 0.1048 foci per cell and 0.1705 foci per cell
same,Topo1i % of MTD,[8],80%
